Test results from article PMC7613515, “Reading and erasing of the phosphonium analogue of trimethyllysine by epigenetic proteins” (Communications Chemistry, 2022).

Experiments:
[1] = system: four of the readers; assay: ITC, reader domains taken together; assay type: binding, human; settings: four of the five readers
Source text: We investigated the thermodynamics of association of the H3KP4me3 peptide with five representative human reader domains containing either a PHD zinc finger or TTD, i.e. KDM5APHD3 (JARID1A-PHD3, residues M1489–V1641)[10], TAF3PHD (R857–K924)[22], BPTFPHD (L2583–N2751)[23], SGF29TTD (R115–K293)[24] and KDM4ATTD (JMJD2A, Q897-P1011)[25], selected on the basis of their preference for binding Ν^ε-trimethyllysine over other (non)methylation marks (Kme0 < Kme1 < Kme2 < Kme3), and their domain and aromatic cage diversity. The recombinant readers were produced in E. coli following reported procedures. Isothermal titration calorimetric (ITC) analyses were used to determine the dissociation constant (Kd), the Gibbs free energy of binding (ΔG°), the enthalpy of binding (ΔH°), and the entropy of binding (ΔS°). […] (Table 1, Fig. 2, Supplementary Fig. 1).
ITC studies followed a reported procedure. […] Histone peptide titrations were performed with the same reader batches. Solutions of the reader in buffer (25–40 µM) and of the histone H3 peptide (350–600 µM) in buffer were prepared. […] Heats of dilution for histone peptides determined in control experiments were subtracted from the titration binding data. Data were analysed with Origin 6.0 (Microcal Inc., Northampton, Massachusetts, USA) and curve fitting with one-site binding mode was applied.

[2] = biological target: T1, BPTFPHD (L2583–N2751) (Homo sapiens, UniProt Q12830); assay: ITC, association of histone H3 peptides with BPTFPHD; assay type: binding
T1 construct: BPTFPHD (L2583–N2751); made in house; host or cells: E. coli
Procedure: ITC studies followed a reported procedure[26]. The buffer used corresponded to that used in the final protein purification step. Briefly, TAF3PHD and KDM4ATTD: [Tris (50 mM) in water (pH 7.5)]; KDM5APHD3 and BTPFPHD: [Tris (50 mM), NaCl (20 mM) in water (pH 7.5)]; [Tris (25 mM), NaCl (50 mM), 1,4-dithiothreitol (1.0 mM) in water (pH 7.5)]. Experiments were conducted using ITC200 automated (GE Healthcare Life Sciences, USA) instrument at 25 °C. Histone peptide titrations were performed with the same reader batches. Solutions of the reader in buffer (25–40 µM) and of the histone H3 peptide (350–600 µM) in buffer were prepared. The prepared solutions were plated into a 96-well plate and inserted into the instrument for analysis. Experiments were performed according to manufacturer’s default settings: Plate pre-rinse syringe clean. A total of 19 injections were performed; each experiment was repeated 3–5 times. Heats of dilution for histone peptides determined in control experiments were subtracted from the titration binding data.

[3] = system: KDM7BJmjC (M37–N483); assay: MALDI-TOF demethylation assay, KDM7BJmjC; assay type: biochemical; settings: 1 hr
Source text: To investigate whether H3KP9me3 can be demethylated by other human KDM4 subfamily members, recombinant KDM4AJmjC (M1–L359) and KDM4DJmjC (M1–L358) were produced in E. coli following an adaption of literature procedures[38],[39]. […] To test the ability of KDM3 and KDM7 subfamily representatives to demethylate H3KP9me2 or H3KP9me3, KDM3AJmjC (T515–S1317) and KDM7BJmjC (M37–N483) were produced using baculovirus/sf9 and E. coli expression systems, respectively[40],[41]. The synthesis of a histone H3 mimic peptide H3KP9me2 substrate is challenging as the tri-alkylated phosphine group is susceptible to oxidation during synthesis of the protected amino acid and during SPPS requiring oxygen-free conditions. Thus, to investigate if KDM3AJmjC or KDM7BJmjC can catalyse demethylation of H3KP9me2, an appropriate H3KP9me2 substrate was prepared in situ from H3KP9me3 using KDM4EJmjC (2.0 µM), in the presence of KDM3AJmjC (2.0 µM) or KDM7BJmjC (2.0 µM).
A Bruker Daltonics MALDI-TOF/TOF AutoflexSpeed machine and Bruker MTP 384 target plates (polished steel BC, Part: 8280781) were used. The machine was controlled using Flex control (v. 3.4 build 135.10) and Compass for flex series (v. 1.4) software. Measurements were in the positive ion mode with the reflectron mode enabled. […] Samples were then analysed by MALDI-TOF. […]

[4] = 25 °C, H3 1-10 peptide, Tris (50 mM), NaCl (20 mM), pH 7.5, from 3 to 5 experiments, ± SD

Molecule: C[C@H](N)C(=O)N[C@@H](CCCNC(=N)N)C(=O)N[C@H](C(=O)N[C@@H](CCCC[P+](C)(C)C)C(=O)N[C@@H](CCC(N)=O)C(=O)N[C@H](C(=O)N[C@@H](C)C(=O)N[C@@H](CCCNC(=N)N)C(=O)N[C@@H](CCCCN)C(=O)N[C@@H](CO)C(N)=O)[C@@H](C)O)[C@@H](C)O [H3KP4me3]
- binding relative to H3K4me3 [1]: stronger complex formation than with H3K4me3
- -TΔS° [2, 4]: 4.7 ± 0.1 kcal/mol
- ΔG° [2, 4]: -9.1 ± 0.1 kcal/mol
- ΔH° [2, 4]: -13.8 ± 0.1 kcal/mol
- fold stronger binding (ΔKd), H3KP4me3 versus H3K4me3 ([2]; BPTFPHD): ~ 7 fold

Molecule: ARTKQTAR(KPme3)STGGKA [H3KP9me3, histone H3 residues 1–15 with trimethylphosphonium lysine analogue at position 9]
- demethylation in combination with KDM4EJmjC ([3]; KDM7BJmjC 2.0 µM plus KDM4EJmjC 2.0 µM, peptide 5.0 µM): produced H3KP9me2 (due to KDM4EJmjC catalysis), but did not result in masses consistent with H3KP9me1 or H3KP9
- demethylation ([3]; KDM7BJmjC 2.0 µM, H3KP9me2 prepared in situ with KDM4EJmjC): do not catalyse demethylation of H3K9me3 (as anticipated) or H3KP9me3
